Test results taken from patent publication US11596639B2, “Substituted indole Mcl-1 inhibitors” (Vanderbilt University, priority 2016, dated 2023).

Key:
[1] = test system: H929 human cancer cell lines; experiment: Cellular viability / proliferation (Cell TiterGlo, 72 h); type: cell-based; details: Homo sapiens, NCI-H929, 72 h, read-out: GI50 on cellular proliferation of H929 human cancer cell lines, H929 cells, 72 h, Cell TiterGlo, 10% FBS
Summary of the method: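 1,000 cells/well, 10% FBS medium; compound added at 24 h, 2-fold dilutions from 50 μM top, DMSO <1% final. 72 h exposure, CellTiterGlo 30 min RT dark, luminescence read. IC50 by 4-parameter fit.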

Mcl-1 = Mcl-1 (Homo sapiens (Human), UniProt Q07820); experiment: TR-FRET binding assay, FITC-Bak peptide and MBP-tagged Mcl-1; details: read-out: Ki for Inhibition of Mcl-1 by TR-FRET assay
Chain of Mcl-1 (Q07820 172-327): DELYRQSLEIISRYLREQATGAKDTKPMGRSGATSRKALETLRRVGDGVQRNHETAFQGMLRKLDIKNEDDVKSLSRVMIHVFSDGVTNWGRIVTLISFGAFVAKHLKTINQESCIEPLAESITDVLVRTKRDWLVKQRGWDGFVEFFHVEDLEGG
Description: Compounds are diluted in DMSO in a 16-point, semilog serial dilution scheme. […] The plate was mixed and incubated for 3 hours at room temperature. […] TR-FRET signal is plotted and IC50 and Ki values are calculated in the same manner as the fluorescence polarization anisotropy based competition assays.

Structure (SMILES) | GI50 [1] | Ki (Mcl-1)
Cc1cc(OCCCc2c3n(c4c(-c5c(C)nn(C)c5C)c(Cl)ccc24)[C@H](C)CN(c2cc(CN4CCN(C)CC4)cc4c(C(=O)O)cn(C)c24)C3=O)cc(C)c1Cl [Example 490, (R)-7-(7-Chloro-10-(3-(4-chloro-3,5-dimethylphenoxy)propyl)-4-methyl-1-oxo-6-(1,3,5-trimethyl-1H-pyrazol-4-yl)-3,4-dihydropyrazino[1,2-a]indol-2(1H)-yl)-1-methyl-5-((4-methylpiperazin-1-yl)methyl)-1H-indole-3-carboxylic acid] | 0.81 µM | 0.00029 µM
Cc1cc(OCCCc2c3n(c4c(-c5c(C)nn(C)c5C)c(Cl)ccc24)[C@H](C)CN(c2cc(NC(=O)CN(C)C)cc4c(C(=O)O)cn(C)c24)C3=O)cc(C)c1Cl [Example 542, (R)-7-(7-Chloro-10-(3-(4-chloro-3,5-dimethylphenoxy)propyl)-4-methyl-1-oxo-6-(1,3,5-trimethyl-1H-pyrazol-4-yl)-3,4-dihydropyrazino[1,2-a]indol-2(1H)-yl)-5-(2-(dimethylamino)acetamido)-1-methyl-1H-indole-3-carboxylic acid] | 3.3 µM | 0.00048 µM
Cc1cc(OCCCc2c3n(c4c(-c5c(C)nn(C)c5C)c(Cl)ccc24)[C@H](C)CN(c2cn(Cc4cccnc4)c4ccc(C(=O)O)cc24)C3=O)cc(C)c1Cl [Example 563, (R)-3-(7-chloro-10-(3-(4-chloro-3,5-dimethylphenoxy)propyl)-4-methyl-1-oxo-6-(1,3,5-trimethyl-1H-pyrazol-4-yl)-3,4-dihydropyrazino[1,2-a]indol-2(1H)-yl)-1-(pyridin-3-ylmethyl)-1H-indole-5-carboxylic acid] | 1.5 µM | < 0.0002 µM
CCOCCn1c(C(=O)O)cc2cc(C)cc(N3C[C@@H](C)n4c(c(CCCOc5cc(C)c(Cl)c(C)c5)c5ccc(Cl)c(-c6c(C)nn(C)c6C)c54)C3=O)c21 [Example 579, (R)-7-(7-chloro-10-(3-(4-chloro-3,5-dimethylphenoxy)propyl)-4-methyl-1-oxo-6-(1,3,5-trimethyl-1H-pyrazol-4-yl)-3,4-dihydropyrazino[1,2-a]indol-2(1H)-yl)-1-(2-ethoxyethyl)-5-methyl-1H-indole-2-carboxylic acid] | 0.24 µM | < 0.0002 µM
Cc1cc(OCCCc2c3n(c4c(-c5c(C)nn(C)c5C)c(Cl)ccc24)[C@H](C)CN(c2cc(COCCN4CCOCC4)cc4cc(C(=O)O)n(C)c24)C3=O)cc(C)c1Cl [Example 693, (R)-7-(7-chloro-10-(3-(4-chloro-3,5-dimethylphenoxy)propyl)-4-methyl-1-oxo-6-(1,3,5-trimethyl-1H-pyrazol-4-yl)-3,4-dihydropyrazino[1,2-a]indol-2(1H)-yl)-1-methyl-5-((2-morpholinoethoxy)methyl)-1H-indole-2-carboxylic acid] | 0.21 µM | < 0.0002 µM
Cc1cc(OCCCc2c3n(c4c(-c5c(C)cc(O)cc5C)c(Cl)ccc24)[C@H](C)CNC3=O)cc(C)c1Cl [Example 488, (R)-7-chloro-10-(3-(4-chloro-3,5-dimethylphenoxy)propyl)-6-(4-hydroxy-2,6-dimethylphenyl)-4-methyl-3,4-dihydropyrazino[1,2-a]indol-1(2H)-one] | 8.7 µM | 0.039 µM
Cc1cc(OCCCc2c3n(c4c(-c5c(C)cc(OCCN6CCCC6)cc5C)c(Cl)ccc24)[C@H](C)CN(c2cn(C)c4ccc(C(=O)O)cc24)C3=O)cc(C)c1Cl [Example 508, (R)-3-(7-chloro-10-(3-(4-chloro-3,5-dimethylphenoxy)propyl)-6-(2,6-dimethyl-4-(2-(pyrrolidin-1-yl)ethoxy)phenyl)-4-methyl-1-oxo-3,4-dihydropyrazino[1,2-a]indol-2(1H)-yl)-1-methyl-1H-indole-5-carboxylic acid] | 0.45 µM | 0.0024 µM
COc1cc(N2C[C@@H](C)n3c(c(CCCOc4cc(C)c(Cl)c(C)c4)c4ccc(Cl)c(-c5c(C)nn(C)c5C)c43)C2=O)c2c(c1)cc(C(=O)O)n2Cc1cccc(C)n1 [Example 536, (R)-7-(7-Chloro-10-(3-(4-chloro-3,5-dimethylphenoxy)propyl)-4-methyl-1-oxo-6-(1,3,5-trimethyl-1H-pyrazol-4-yl)-3,4-dihydropyrazino[1,2-a]indol-2(1H)-yl)-5-methoxy-1-((6-methylpyridin-2-yl)methyl)-1H-indole-2-carboxylic acid] | < 0.2 µM | < 0.0002 µM
COCCOc1cc(N2C[C@@H](C)n3c(c(CCCOc4cc(C)c(Cl)c(C)c4)c4ccc(Cl)c(-c5c(C)ncnc5C)c43)C2=O)c2c(c1)cc(C(=O)O)n2Cc1cc(C)ccn1 [Example 573, (R)-7-(7-chloro-10-(3-(4-chloro-3,5-dimethylphenoxy)propyl)-6-(4,6-dimethylpyrimidin-5-yl)-4-methyl-1-oxo-3,4-dihydropyrazino[1,2-a]indol-2(1H)-yl)-5-(2-methoxyethoxy)-1-((4-methylpyridin-2-yl)methyl)-1H-indole-2-carboxylic acid] | < 0.2 µM | < 0.0002 µM
Cc1cc(OCCCc2c3n(c4c(-c5c(C)nn(C)c5C)c(Cl)ccc24)[C@H](C)CN(c2cc(OCc4ccccc4)cc4cc(C(=O)O)n(Cc5ccccn5)c24)C3=O)cc(C)c1Cl [Example 588, (R)-5-(benzyloxy)-7-(7-chloro-10-(3-(4-chloro-3,5-dimethylphenoxy)propyl)-4-methyl-1-oxo-6-(1,3,5-trimethyl-1H-pyrazol-4-yl)-3,4-dihydropyrazino[1,2-a]indol-2(1H)-yl)-1-(pyridin-2-ylmethyl)-1H-indole-2-carboxylic acid] | 1.4 µM | 0.0014 µM
Cc1cc(OCCCc2c3n(c4c(-c5c(C)cc(O)cc5C)c(Cl)ccc24)[C@H](C)CN(c2cn(C)c4ccc(C(=O)O)cc24)C3=O)cc(C)c1Cl [Example 496, (R)-3-(7-chloro-10-(3-(4-chloro-3,5-dimethylphenoxy)propyl)-6-(4-hydroxy-2,6-dimethylphenyl)-4-methyl-1-oxo-3,4-dihydropyrazino[1,2-a]indol-2(1H)-yl)-1-methyl-1H-indole-5-carboxylic acid] | 1.2 µM | 0.00064 µM
Cc1cc(N2C[C@@H](C)n3c(c(CCCOc4cc(C)c(Cl)c(C)c4)c4ccc(Cl)c(-c5c(C)nn(C)c5C)c43)C2=O)c2c(c1)cc(C(=O)O)n2Cc1cc(N2CCN(C)CC2)ccn1 [Example 515, (R)-7-(7-Chloro-10-(3-(4-chloro-3,5-dimethylphenoxy)propyl)-4-methyl-1-oxo-6-(1,3,5-trimethyl-1H-pyrazol-4-yl)-3,4-dihydropyrazino[1,2-a]indol-2(1H)-yl)-5-methyl-1-((4-(4-methylpiperazin-1-yl)pyridin-2-yl)methyl)-1H-indole-2-carboxylic acid] | 0.61 µM | < 0.0002 µM
COCCOCCn1c(C(=O)O)cc2cc(C)cc(N3C[C@@H](C)n4c(c(CCCOc5cc(C)c(Cl)c(C)c5)c5ccc(Cl)c(-c6c(C)nn(C)c6C)c54)C3=O)c21 [Example 678, (R)-7-(7-chloro-10-(3-(4-chloro-3,5-dimethylphenoxy)propyl)-4-methyl-1-oxo-6-(1,3,5-trimethyl-1H-pyrazol-4-yl)-3,4-dihydropyrazino[1,2-a]indol-2(1H)-yl)-1-(2-(2-methoxyethoxy)ethyl)-5-methyl-1H-indole-2-carboxylic acid] | < 0.2 µM | 0.00022 µM
Cc1cc(OCCCc2c3n(c4c(-c5c(C)nn(C)c5C)c(Cl)ccc24)[C@H](C)CN(c2cc(Oc4ccccn4)cc4cc(C(=O)O)n(C)c24)C3=O)cc(C)c1Cl [Example 522, (R)-7-(7-Chloro-10-(3-(4-chloro-3,5-dimethylphenoxy)propyl)-4-methyl-1-oxo-6-(1,3,5-trimethyl-1H-pyrazol-4-yl)-3,4-dihydropyrazino[1,2-a]indol-2(1H)-yl)-1-methyl-5-(pyridin-2-yloxy)-1H-indole-2-carboxylic acid] | 0.75 µM | 0.00032 µM
COCCOCc1cccn2nc(-c3ccc4c(c3)c(N3C[C@@H](C)n5c(c(CCCOc6cc(C)c(Cl)c(C)c6)c6ccc(Cl)c(-c7c(C)nn(C)c7C)c65)C3=O)cn4C)nc12 [Example 699, (R)-7-Chloro-10-(3-(4-chloro-3,5-dimethylphenoxy)propyl)-2-(5-(8-((2-methoxyethoxy)methyl)-[1,2,4]triazolo[1,5-a]pyridin-2-yl)-1-methyl-1H-indol-3-yl)-4-methyl-6-(1,3,5-trimethyl-1H-pyrazol-4-yl)-3,4-dihydropyrazino[1,2-a]indol-1(2H)-one] | 0.35 µM | 0.0012 µM
Cc1cc(OCCCc2c3n(c4c(-c5c(C)nn(C)c5C)c(Cl)ccc24)[C@H](C)CN(c2cc(OC4CC[N+](C)(C)C4)cc4cc(C(=O)O)n(C)c24)C3=O)cc(C)c1Cl (stereo partly drawn) [Example 513, 3-((2-Carboxy-7-((R)-7-chloro-10-(3-(4-chloro-3,5-dimethylphenoxy)propyl)-4-methyl-1-oxo-6-(1,3,5-trimethyl-1H-pyrazol-4-yl)-3,4-dihydropyrazino[1,2-a]indol-2(1H)-yl)-1-methyl-1H-indol-5-yl)oxy)-1,1-dimethylpyrrolidin-1-ium 2,2,2-trifluoroacetate] | 5.3 µM | < 0.0002 µM
COCCn1cc(N2C[C@@H](C)n3c(c(CCCOc4cc(C)c(Cl)c(C)c4)c4ccc(Cl)c(-c5c(C)nn(C)c5C)c43)C2=O)c2cc(-c3ncn(CC4COC4)n3)ccc21 [Example 581, (R)-7-Chloro-10-(3-(4-chloro-3,5-dimethylphenoxy)propyl)-2-(1-(2-methoxyethyl)-5-(1-(oxetan-3-ylmethyl)-1H-1,2,4-triazol-3-yl)-1H-indol-3-yl)-4-methyl-6-(1,3,5-trimethyl-1H-pyrazol-4-yl)-3,4-dihydropyrazino[1,2-a]indol-1(2H)-one] | 0.25 µM | 0.0037 µM
